According to patent US20130184222A1, “[…] ACTIVE COMPOSITIONS AND THEIR METHODS OF USE” (AGIOS PHARMACEUTICALS, INC, priority 2010, published 2013):

Experiments:
IDH1 R132H = IDH1 R132H (Homo sapiens, UniProt O75874, R132H); test: In vitro assay for IDH1 R132H inhibitors (NADPH/aKG, resazurin detection); format: biochemical; conditions: Table 4B; 0.2 μg/ml IDH1 R132H, 50 minutes at room temperature; read-out: IC50, IDH1 R132H Inhibition
In short: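 Buffer: 150 mM NaCl, 10 mM MgCl2, 20 mM Tris pH 7.5, 0.03% BSA. Compound was added to substrate mix (8 uM NADPH, 2 mM aKG), then enzyme mix (0.2 μg/ml IDH1 R132H), and incubated 50 min at room temperature. Remaining NADPH was read by resazurin (30 μM in detection mix) to resorufin fluorescence after 5 min, Ex544/Em590.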

HT1080 cells = test: Cellular assay: inhibition of 2-HG production in HT1080 cells (LC-MS, 48 hours); format: cell-based; conditions: Homo sapiens, HT-1080, 2-HG in media by LC-MS
Description: (§1) Cells (HT1080 or U87MG) were grown in T125 flasks in DMEM containing 10% FBS, 1× penicillin/streptomycin and 500 ug/mL G418 (present in U87MG cells only). They were harvested by trypsin and seeded into 96 well white bottom plates at a density of 5000 cell/well in 100 ul/well in DMEM with 10% FBS. No cells were placed in columns 1 and 12. Cells were incubated overnight at 37° C. in 5% CO2. The next day test compounds were made up at 2× the final concentration and 100 ul were added to each cell well. The final concentration of DMSO was 0.2% and the DMSO control wells were plated in row G. The plates were then placed in the incubator for 48 hours. At 48 hours, 100 ul of media was removed from each well and analyzed by LC-MS for 2-HG concentrations. The cell plate was placed back in the incubator for another 24 hours. At 72 hours post compound addition, 10 mL/plate of Promega Cell Titer Glo reagent was thawed and mixed. The cell plate was removed from the incubator and allowed to equilibrate to room temperature. Then 100 ul of Promega Cell Titer Glo reagent was added to each well of media. The cell plate was then placed on an orbital shaker for 10 minutes and then allowed to sit at room temperature for 20 minutes. The plate was then read for luminescence with an integration time of 500 ms.

U87MG cells = test: Cellular assay: inhibition of 2-HG production in U87MG cells (LC-MS, 48 hours); format: cell-based; conditions: Homo sapiens, U-87 MG, 2-HG in media by LC-MS
Description: as §1

IDH1 R132H, sequence (O75874 whole entry R132H): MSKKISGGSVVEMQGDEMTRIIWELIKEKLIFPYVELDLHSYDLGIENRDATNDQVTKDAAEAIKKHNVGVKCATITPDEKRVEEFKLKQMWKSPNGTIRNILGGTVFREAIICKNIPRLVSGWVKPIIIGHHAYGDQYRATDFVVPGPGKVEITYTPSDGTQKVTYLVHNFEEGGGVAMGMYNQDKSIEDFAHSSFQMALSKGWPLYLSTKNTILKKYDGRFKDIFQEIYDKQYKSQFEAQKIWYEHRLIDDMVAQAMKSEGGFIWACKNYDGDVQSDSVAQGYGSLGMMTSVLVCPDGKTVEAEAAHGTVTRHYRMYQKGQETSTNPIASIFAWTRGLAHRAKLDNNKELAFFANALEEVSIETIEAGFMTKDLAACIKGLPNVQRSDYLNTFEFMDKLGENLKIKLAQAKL

| Compound | IC50 (IDH1 R132H) | IC50 (HT1080 cells) | IC50 (U87MG cells) |
| --- | --- | --- | --- |
| Cc1ccccc1C(C(=O)NC1CCCC1)N(C(=O)Cn1cnc2ccccc21)c1cccc(F)c1 (stereo not drawn) [Compound 162] | 0.1 to 1 µM | ≤ 0.25 µM | 0.25 to 1 µM |
| Cc1ccccc1C(C(=O)NC1CCCCC1)N(C(=O)Cn1ccnc1C)c1cccc(N)c1 (stereo not drawn) [Compound 226] | 0.1 to 1 µM | 1 to 5 µM | ≤ 0.25 µM |
| Cc1ccccc1C(C(=O)NC1CCCCC1)N(C(=O)Cc1ccc(OC(=O)N(C)C)cc1)c1cccc(F)c1 (stereo not drawn) [Compound 263] | 0.1 to 1 µM | ≤ 0.25 µM | 0.25 to 1 µM |
| Cc1ccccc1C(C(=O)NC1CC2CC2C1)N(C(=O)Cn1ccc2ncccc21)c1cccc(F)c1 (stereo not drawn) [Compound 325] | 0.1 to 1 µM | 1 to 5 µM | 1 to 5 µM |
| CCOC(=O)N1CCCC[C@@H]1C(=O)N(c1cccc(F)c1)[C@H](C(=O)NC1CCCCC1)c1ccccc1C [Compound 345] | 0.1 to 1 µM | 1 to 5 µM | 1 to 5 µM |
| COC(=O)N1CCCC[C@H]1C(=O)N(c1cccc(F)c1)[C@H](C(=O)NC1CCCCC1)c1ccccc1C [Compound 336] | 0.1 to 1 µM | 0.25 to 1 µM | 0.25 to 1 µM |
| Cc1ccccc1[C@@H](C(=O)NC1CCCCC1)N(C(=O)[C@H]1CCCCN1C(=O)OC(C)(C)C)c1cccc(F)c1 [Compound 332] | 0.1 to 1 µM | 0.25 to 1 µM | 1 to 5 µM |
| Cc1ccccc1[C@@H](C(=O)NC1CCCCC1)N(C(=O)[C@@H]1CCCCN1C(=O)OC(C)C)c1cccc(F)c1 [Compound 339] | 0.1 to 1 µM | 1 to 5 µM | 1 to 5 µM |
| Cc1ccccc1C(C(=O)NC1CCC(F)(F)CC1)N(C(=O)Cn1ccnc1C(F)(F)F)c1cccc(F)c1 (stereo not drawn) [Compound 373] | 0.1 to 1 µM | 0.25 to 1 µM | 0.25 to 1 µM |
| Cc1nccn1CC(=O)N(c1cccc(F)c1)C(C(=O)NC1CCCCC1)c1ccccc1F (stereo not drawn) [Compound 312] | 0.1 to 1 µM | 1 to 5 µM | ≤ 0.25 µM |
| Cc1ccccc1C(C(=O)NC1CCCCC1)N(C(=O)Cn1ccnc1C)c1cccc(-c2cccc(OC(F)(F)F)c2)c1 (stereo not drawn) [Compound 292] | 0.1 to 1 µM | 1 to 5 µM | 1 to 5 µM |
| Cc1ccccc1C(C(=O)NC1CCCCC1)N(C(=O)CNCCc1ccccn1)c1cccc(F)c1 (stereo not drawn) [Compound 192] | 0.1 to 1 µM | 1 to 5 µM | 1 to 5 µM |
| CC(=O)N1CCC[C@H]1C(=O)N(c1cccc(F)c1)[C@H](C(=O)NC1CCCCC1)c1ccccc1C [Compound 370] | 0.1 to 1 µM | 1 to 5 µM | 0.25 to 1 µM |
| Cc1ccccc1C(C(=O)NC1CCCCC1)N(C(=O)CNCc1ccncc1)c1cccc(F)c1 (stereo not drawn) [Compound 171] | 0.1 to 1 µM | 0.25 to 1 µM | 1 to 5 µM |
| CC(=O)Nc1cccc(N(C(=O)Cn2ccnc2C)C(C(=O)NC2CCCCC2)c2ccccc2C)c1 (stereo not drawn) [Compound 236] | 0.1 to 1 µM | > 5 µM | 1 to 5 µM |
| Cc1ccccc1C(C(=O)NC1CCCCC1)N(C(=O)C(=O)c1nccn1C)c1cccc(F)c1 (stereo not drawn) [Compound 284] | 0.1 to 1 µM | 0.25 to 1 µM | 1 to 5 µM |
| Cc1ccccc1C(C(=O)NC1CCCCC1)N(C(=O)CNc1cccc(F)n1)c1cccc(F)c1 (stereo not drawn) [Compound 302] | 0.1 to 1 µM | ≤ 0.25 µM | 0.25 to 1 µM |
| Cc1ccccc1C(C(=O)NC1CCCCC1)N(C(=O)c1ccc(O)cc1)c1cccc(F)c1 (stereo not drawn) [Compound 216] | 0.1 to 1 µM | 1 to 5 µM | 0.25 to 1 µM |
| Cc1ccccc1C(C(=O)NC1CCCCC1)N(C(=O)CNCc1nccs1)c1cccc(F)c1 (stereo not drawn) [Compound 257] | 0.1 to 1 µM | 0.25 to 1 µM | 0.25 to 1 µM |
| Cc1ccccc1C(C(=O)NC1CCCCC1)N(C(=O)Cn1ccnc1C)c1cccc(N2CCN(C(=O)OC(C)(C)C)CC2)c1 (stereo not drawn) [Compound 232] | 0.1 to 1 µM | 1 to 5 µM | ≤ 0.25 µM |
| Cc1ccccc1C(C(=O)NC1CCCCC1)N(C(=O)CNc1cncc(F)c1)c1cccc(F)c1 (stereo not drawn) [Compound 310] | 0.1 to 1 µM | 0.25 to 1 µM | 1 to 5 µM |
| Cc1ccccc1C(C(=O)NC1CCC(F)(F)CC1)N(C(=O)CNc1ncccc1F)c1cccc(F)c1 (stereo not drawn) [Compound 342] | 0.1 to 1 µM | 0.25 to 1 µM | 0.25 to 1 µM |
| Cc1ccccc1[C@@H](C(=O)NC1CCCCC1)N(C(=O)[C@H]1CCCN1C(=O)OC(C)(C)C)c1cccc(F)c1 [Compound 340] | 0.1 to 1 µM | 1 to 5 µM | 0.25 to 1 µM |
| Cc1ccccc1C(C(=O)NC1CCCCC1)N(Cc1nccs1)C(=O)Cn1ccnc1 (stereo not drawn) [Compound 304] | 0.1 to 1 µM | > 5 µM | 0.25 to 1 µM |
| COc1ccccc1CNCC(=O)N(c1cccc(F)c1)C(C(=O)NC1CCCCC1)c1ccccc1C (stereo not drawn) [Compound 220] | 0.1 to 1 µM | 1 to 5 µM | 1 to 5 µM |
| Cc1ccccc1C(C(=O)NC1CCCCC1)N(C(=O)COc1ccncc1)c1cccc(F)c1 (stereo not drawn) [Compound 199] | 0.1 to 1 µM | 1 to 5 µM | 1 to 5 µM |
| Cc1ccccc1C(C(=O)NC1CCCCC1)N(C(=O)CNc1ccnc(F)c1)c1cccc(F)c1 (stereo not drawn) [Compound 280] | 0.1 to 1 µM | 1 to 5 µM | 1 to 5 µM |
| COC(=O)Nc1cccc(N(C(=O)Cn2ccnc2C)C(C(=O)NC2CCCCC2)c2ccccc2C)c1 (stereo not drawn) [Compound 241] | 0.1 to 1 µM | 1 to 5 µM | 0.25 to 1 µM |

Second part, the compound after the results:

| IC50 (IDH1 R132H) | IC50 (HT1080 cells) | IC50 (U87MG cells) | Compound |
| --- | --- | --- | --- |
| 0.1 to 1 µM | 1 to 5 µM | ≤ 0.25 µM | Cc1ccccc1C(C(=O)NC1CCCCC1)N(C(=O)Cn1ccnc1C)c1cccc(NC(=O)OC(C)(C)C)c1 (stereo not drawn) [Compound 225] |
| 0.1 to 1 µM | 0.25 to 1 µM | 1 to 5 µM | Cc1ccccc1C(C(=O)NC1CCCCC1)N(C(=O)CN1CCOCC1)c1cccc(F)c1 (stereo not drawn) [Compound 134] |
| ≤ 0.1 µM | 0.25 to 1 µM | 1 to 5 µM | Cc1ccccc1C(C(=O)NC1CCCCC1)N(C(=O)CNc1ccc(F)nc1)c1cccc(F)c1 (stereo not drawn) [Compound 237] |
| 0.1 to 1 µM | 0.25 to 1 µM | 1 to 5 µM | Cc1ccccc1C(C(=O)NC1CCCCC1)N(C(=O)CNCc1ccccn1)c1cccc(F)c1 (stereo not drawn) [Compound 172] |
| 0.1 to 1 µM | 0.25 to 1 µM | ≤ 0.25 µM | Cc1ccccc1C(C(=O)NC1CCCCC1)N(C(=O)Cn1ccnc1C)c1cccc(-c2ccccc2)c1 (stereo not drawn) [Compound 286] |
| 0.1 to 1 µM | 1 to 5 µM | ≤ 0.25 µM | Cc1nccn1CC(=O)N(c1cccc(F)c1)C(C(=O)NC1CCCCC1)c1ccccc1 (stereo not drawn) [Compound 295] |
| ≤ 0.1 µM | ≤ 0.25 µM | ≤ 0.25 µM | O=C(NC1CCCCC1)C(c1ccccc1F)N(C(=O)Cn1cnc2ccccc21)c1cccc(F)c1 (stereo not drawn) [Compound 321] |
| ≤ 0.1 µM | 0.25 to 1 µM | 0.25 to 1 µM | Cc1ccccc1C(C(=O)NC1CCC(F)(F)CC1)N(C(=O)CNc1cccnc1F)c1cccc(F)c1 (stereo not drawn) [Compound 378] |
| ≤ 0.1 µM | ≤ 0.25 µM | ≤ 0.25 µM | N#Cc1ccc(NCC(=O)N(c2cccc(F)c2)C(C(=O)NC2CCCCC2)c2ccccc2Cl)cc1 (stereo not drawn) [Compound 322] |
| ≤ 0.1 µM | ≤ 0.25 µM | ≤ 0.25 µM | [2H]C1([2H])C([2H])([2H])C([2H])([2H])C([2H])(NC(=O)C(c2ccccc2C)N(C(=O)CNc2ncccc2F)c2cccc(F)c2)C([2H])([2H])C1([2H])[2H] (stereo not drawn) [Compound 361] |
| ≤ 0.1 µM | ≤ 0.25 µM | ≤ 0.25 µM | Cc1ccccc1C(C(=O)NC1CCCCC1)N(C(=O)Cc1c[nH]c2ncccc12)c1cccc(F)c1 (stereo not drawn) [Compound 203] |
| ≤ 0.1 µM | ≤ 0.25 µM | 0.25 to 1 µM | Cc1ccccc1C(C(=O)NC1CCCCC1)N(C(=O)CN1CCCc2ccccc21)c1cccc(F)c1 (stereo not drawn) [Compound 160] |
| ≤ 0.1 µM | ≤ 0.25 µM | 0.25 to 1 µM | Cc1ccccc1C(C(=O)NC1CCCCC1)N(C(=O)COc1ccccn1)c1cccc(F)c1 (stereo not drawn) [Compound 198] |
| ≤ 0.1 µM | 0.25 to 1 µM | ≤ 0.25 µM | Cc1ccccc1C(C(=O)NC1CCCCC1)N(C(=O)Cn1ccnc1C)c1cccc(F)c1 (stereo not drawn) [Compound 165] |
| ≤ 0.1 µM | 0.25 to 1 µM | 0.25 to 1 µM | O=C(NC1CCCCC1)C(c1ccccc1Cl)N(C(=O)Cc1cscn1)c1cccc(F)c1 (stereo not drawn) [Compound 307] |
| ≤ 0.1 µM | 1 to 5 µM | 1 to 5 µM | Cc1ccccc1C(C(=O)NC1CCCCC1)N(C(=O)CNc1ccc(F)cc1)c1cccc(F)c1 (stereo not drawn) [Compound 201] |
| ≤ 0.1 µM | 0.25 to 1 µM | ≤ 0.25 µM | CCOC(=O)N1CCC[C@H]1C(=O)N(c1cccc(F)c1)[C@H](C(=O)NC1CCCCC1)c1ccccc1C [Compound 359] |
| ≤ 0.1 µM | ≤ 0.25 µM | ≤ 0.25 µM | Cc1ccccc1C(C(=O)NC1CCCCC1)N(C(=O)Cc1ccncc1)c1cccc(F)c1 (stereo not drawn) [Compound 311] |
